Data taken from US12024506B2, “Compounds” (Oxford University Innovation Limited, priority 2018, dated 2024).

Molecular target: T1, GST-human KRas166 (G12V) GPPNHP (Homo sapiens, UniProt P01116, G12V)
T1 construct: made in house; host or cells: E. coli C41(DE3)
Experiment: KRas small-molecule screening by SPR (Biacore T200)
Type: binding
Conditions: compound 100 uM, 5% DMSO buffer; immobilised GST-KRas166 (G12V) GPPNHP
Experimental: For SPR assays pGEX-KRAS(G12V) plasmid was transformed into E. coli C41(DE3). Bacterial cells were cultured at 37° C. to an OD600 of 0.6 and induced with IPTG (final 0.1 mM) at 18° C. over night. The GST fusion proteins were extracted from bacteria pellets after cell disruption in 140 mM NaCl, 2.7 mM KCl, 10 mM NaH2PO4, 1.8 mM KH2PO4, 1 mM EDTA, 2 mM MgCl2 pH 7.4 and purified by glutathione-sepharose column chromatography (GE Healthcare), eluting with 50 mM Tris-HCl pH8.0, 10 mM reduced glutathione, 1 mM DTT, 2 mM MgCl2. The eluted proteins were dialysed against 50 mM Tris-HCl pH8.0, 1 mM DTT, 2 mM MgCl2 and concentrated to 10 mg/ml using a Biomax-30 ULTRAFREE-15 centrifugal filter device (Millipore). Purified KRAS protein was loaded with GPPNHP as described elsewhere (Pacold et al., 2000). Loaded protein was then purified by gel filtration on a HiLoad Superdex-75 HR column (GE Healthcare) in 1×PBS pH7.4, 5 mM MgCl2 and concentrated for storage.
Protocol for KRas Small-Molecule Screening and Affinity Measurements by SPR
To a previously immobilized CM5 chip (GE Healthcare BR-1005-30) with anti GST antibody via amine coupling method, GST in channel 1 and GST-human KRas166 (G12V) GPPNHP in channel 2 were immobilised. GST was immobilised between 2,000 and 5,000 Response units. KRAS166 (G12V) was immobilized between 10,000 to 15,000 Response Units.
In a 96 well plate, compounds were diluted in […], 5 mM MgCl2 and 5% DMSO Buffer to a final concentration of 100 uM. DCAl was used as positive control. Experiment also included a solvent correction curve for 5% DMSO. Screening and evaluation of the protein immobilization and the compounds screening was done accordingly to the BIACORE T200 control and evaluation software.
Calculations for how many response units are required for a 1:1 ratio of compound/protein interaction are shown below. • Protein immobilisation: 10,000 RU; average fragment 300 Da in size. • Rmax=(MWA/MWL)×RL×SM • MWA is the molecular weight of the analyte in Da • MWL is the molecular weight of the ligand in Da • RL is the immobilization level in RU • SM is the molar stoichiometry (assume 1:1) • Rmax=300/47,500×10,000×1 • Rmax=63 RU. Cell Viability Assay protocols Assay 1

| Structure (SMILES) | SPR Response Units [Response Units] |
| --- | --- |
| COc1cccc(-c2cccc3c2OC(CNCC2CCOCC2)CO3)n1 (stereo not shown) [Example 29, [8-(6-Methoxy-pyridin-2-yl)-2,3-dihydro-benzo[1,4]dioxin-2-ylmethyl]-(tetrahydro-pyran-4-ylmethyl)-amine] | 14 |
| COc1cc(NC(=O)C2CCNCC2)cc(-c2cccc3c2OCCO3)n1 [Example 19, Piperidine-4-carboxylic acid [2-(2,3-dihydro-benzo[1,4]dioxin-5-yl)-6-methoxy-pyridin-4-yl]-amide] | 100 |
| CN(C)CCOc1ccc(C(=O)NCC2COc3cccc(-c4ccccn4)c3O2)cc1 (stereo not shown) [Example 104, 4-(2-Dimethylamino-ethoxy)-N-(8-pyridin-2-yl-2,3-dihydro-benzo[1,4]dioxin-2-ylmethyl)-benzamide] | 35 |
| CN1CCC(COc2ccc(-c3cccc4c3OCCO4)nn2)CC1 [Example 85, 3-(2,3-Dihydro-benzo[1,4]dioxin-5-yl)-6-(1-methyl-piperidin-4-ylmethoxy)-pyridazine] | 20 |
| COc1cc(NC(=O)[C@@H]2CNCCO2)cc(-c2cccc3c2OCCO3)n1 [Example 20, (S)-Morpholine-2-carboxylic acid [2-(2,3-dihydro-benzo[1,4]dioxin-5-yl)-6-methoxy-pyridin-4-yl]-amide] | 80 |
| c1cc2c(c(-c3ccc(Nc4ccc(CNCC5COCCN5)cc4)nn3)c1)OCCO2 (stereo not shown) [Example 154, [6-(2,3-Dihydro-benzo[1,4]dioxin-5-yl)-pyridazin-3-yl]-(4-{[(morpholin-3-ylmethyl)-amino]-methyl}-phenyl)-amine] | 59 |

The remaining lines, values ahead:

| SPR Response Units [Response Units] | Structure (SMILES) |
| --- | --- |
| 26 | COc1cccc(-c2cccc3c2OC(CNCC2CCN(C(=O)c4cnccn4)CC2)CO3)n1 (stereo not shown) [Example 29a, [4-({[8-(6-Methoxy-pyridin-2-yl)-2,3-dihydro-benzo[1,4]dioxin-2-ylmethyl]-amino}-methyl)-piperidin-1-yl]-pyrazin-2-yl-methanone] |
| 32 | COc1cccc(-c2cccc3c2O[C@H](CNC(=O)c2ccc(CN4CCN(C)CC4)o2)CO3)n1 [Example 51, 5-(4-Methyl-piperazin-1-ylmethyl)-furan-2-carboxylic acid [(R)-8-(6-methoxy-pyridin-2-yl)-2,3-dihydro-benzo[1,4]dioxin-2-ylmethyl]-amide] |
| 64 | CN(C)CCOc1ccc(C(=O)NCC2COc3cccc(-c4cccc(N(C)C)n4)c3O2)cc1 (stereo not shown) [Example 103, 4-(2-Dimethylamino-ethoxy)-N-[8-(6-dimethylamino-pyridin-2-yl)-2,3-dihydro-benzo[1,4]dioxin-2-ylmethyl]-benzamide] |
| 29 | O=C(NCC1COc2cccc(-c3ccc(OCCN4CCOCC4)cn3)c2O1)C1CCOCC1 (stereo not shown) [Example 111, Tetrahydro-pyran-4-carboxylic acid {8-[5-(2-morpholin-4-yl-ethoxy)-pyridin-2-yl]-2,3-dihydro-benzo[1,4]dioxin-2-ylnethyl}-amide] |
| 66 | CN1CCC(NC(=O)c2ccc(Nc3ccc(-c4cccc5c4OC(CNC(=O)C4CCOCC4)CO5)nc3)cc2)CC1 (stereo not shown) [Example 91] |
| 10 | COc1cccc(-c2cccc3c2OCCO3)n1 [Example 1, 2-(2,3-Dihydro-benzo[1,4]dioxin-5-yl)-6-methoxy-pyridine] |
| 23 | COc1cc(N)cc(-c2cccc3c2O[C@H](CNC(=O)c2ccc(CN4CCN(C)CC4)o2)CO3)n1 [Example 114, 5-(4-Methyl-piperazin-1-ylmethyl)-furan-2-carboxylic acid [(R)-8-(4-amino-6-methoxy-pyridin-2-yl)-2,3-dihydro-benzo[1,4]dioxin-2-ylmethyl]-amide] |
